Assay results as given in ChEMBL document CHEMBL3351707, “Discovery and SAR of muscarinic receptor subtype 1 (M1) allosteric activators from a molecular libraries high throughput screen. Part 1: 2,5-dibenzyl-2H-pyrazolo[4,3-c]quinolin-3(5H)-ones as positive allosteric modulators” (Bioorg Med Chem Lett, 2015).
Calls of active or inactive are those of the source. The rule behind the calls is not given here.

Assays:
Type in all cases: functional, cell-based
[1] = molecular target: T1, Muscarinic acetylcholine receptor M1 (Homo sapiens, UniProt P11229); test: (§1) Positive allosteric modulator activity at human muscarinic receptor subtype 1 expressed in CHO-K1 cells by calcium mobilization assay
T1 sequence (P11229 whole entry): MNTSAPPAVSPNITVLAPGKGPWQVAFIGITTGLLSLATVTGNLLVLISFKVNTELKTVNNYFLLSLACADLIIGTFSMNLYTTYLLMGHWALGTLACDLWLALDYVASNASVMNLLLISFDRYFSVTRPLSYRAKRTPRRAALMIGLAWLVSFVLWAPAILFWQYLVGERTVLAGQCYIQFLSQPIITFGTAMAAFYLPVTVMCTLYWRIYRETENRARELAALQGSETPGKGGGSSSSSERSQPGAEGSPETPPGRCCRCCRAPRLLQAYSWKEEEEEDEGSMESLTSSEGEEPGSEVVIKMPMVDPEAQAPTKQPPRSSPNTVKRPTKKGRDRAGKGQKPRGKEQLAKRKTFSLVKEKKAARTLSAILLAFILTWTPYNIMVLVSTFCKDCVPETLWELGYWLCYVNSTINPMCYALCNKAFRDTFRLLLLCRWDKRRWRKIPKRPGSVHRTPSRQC

[2] = molecular target: T2, Muscarinic acetylcholine receptor M1 (Homo sapiens) (UniProt P11229); test: as §1
T2 sequence (whole entry): T1 sequence (P11229 whole entry)

[3] = molecular target: T2, Muscarinic acetylcholine receptor M1 (Homo sapiens); test: Positive allosteric modulator activity at human muscarinic receptor subtype 1 expressed in CHO-K1 cells by calcium mobilization assay relative to acetylcholine
[4] = molecular target: T2, Muscarinic acetylcholine receptor M1 (Homo sapiens); test: Positive allosteric modulator activity at human muscarinic receptor subtype 1 expressed in CHO-K1 cells at 30 uM by calcium mobilization assay relative to acetylcholine

| EC50 ([1]; cho-k1) | pEC50 [2] | Emax [3] | EC50 ([1]; read-out: EC50) [µM] | Emax [4] [%] | SMILES |
| --- | --- | --- | --- | --- | --- |
| Not Active | inactive | inactive |  |  | Cc1ccc(Cn2cc3c(=O)n(Cc4ccc(C)cc4C)nc-3c3ccccc32)cc1 |
| Not Active | inactive |  |  |  | O=c1c2cn(Cc3ccccc3)c3ccccc3c-2nn1Cc1ccccc1 |
| Not Active | inactive |  |  |  | Cn1cc(-c2ccc(Cn3nc4c5ccccc5[nH]cc-4c3=O)cc2)cn1 |
| Not Active | inactive |  |  |  | O=c1c2c[nH]c3ccccc3c-2nn1Cc1ccc(-n2cccn2)cc1 |
|  |  | 89% | 0.6 |  | Cn1cc(-c2ccc(Cn3cc4c(=O)[nH]nc-4c4ccccc43)c(F)c2)cn1 |
|  |  | 80% | 1.15 |  | Cc1ccc(Cn2nc3c4ccccc4n(Cc4ccc(-n5cccn5)cc4)cc-3c2=O)c(C)c1 |
|  |  | 88% | 2.43 |  | Cn1nc2c3ccccc3n(Cc3ccc(-n4cccn4)cc3)cc-2c1=O |
|  |  |  | > 30 |  | Cc1ccc(C)c(Cn2nc3c4ccccc4[nH]cc-3c2=O)c1 |
| Not Active | inactive | inactive |  |  | Cc1ccc(Cn2nc3c4ccccc4n(Cc4ccccc4C)cc-3c2=O)c(C)c1 |
|  |  | 83% | 1.2 |  | O=c1[nH]nc2c3ccccc3n(Cc3ccc(-n4cccn4)cc3)cc1-2 |
|  |  | 39% | 0.821 |  | COc1ccc(Cn2cc3c(=O)n(Cc4ccc(C)cc4C)nc-3c3ccccc32)cc1 |
| Not Active | inactive |  |  |  | Cc1cccc(Cn2nc3c4ccccc4n(Cc4ccccc4)cc-3c2=O)c1 |
|  |  | 31% | 1.42 |  | Cc1ccc(Cn2nc3c4ccccc4n(Cc4cccc(F)c4)cc-3c2=O)c(C)c1 |
| Not Active |  |  |  |  | Cc1ccc(C)c(CN2C(=O)C(=O)c3ccccc32)c1 |
|  |  |  | > 10 | 59 | O=c1c2cn(Cc3ccccc3)c3ccccc3c-2nn1Cc1ccccn1 |
|  |  | 47% | 0.783 |  | Cc1ccccc1Cn1nc2c3ccccc3n(Cc3ccccc3)cc-2c1=O |
|  |  | 65% | 6.31 |  | O=c1c2cn(Cc3ccccc3)c3ccccc3c-2nn1Cc1cccnc1 |
|  |  | 46% | 0.656 |  | Cc1ccc(Cn2nc3c4ccccc4n(Cc4ccccc4F)cc-3c2=O)c(C)c1 |
| Not Active | inactive |  |  |  | O=c1c2cn(Cc3ccccc3)c3ccccc3c-2nn1Cc1ccc(F)cc1 |

| EC50 ([1]; cho-k1) | pEC50 [2] | Emax [3] | EC50 ([1]; read-out: EC50) [µM] | Emax [4] [%] | SMILES |
| --- | --- | --- | --- | --- | --- |
|  |  | 36% | 1.01 |  | O=c1c2cn(Cc3ccccc3)c3ccccc3c-2nn1Cc1ccccc1F |
| Not Active | inactive | inactive |  |  | COc1ccc(Cn2cc3c(=O)n(Cc4ccc(C)cc4C)nc-3c3ccccc32)c(F)c1 |
|  |  | 47% | 2.02 |  | Cc1ccc(Cn2nc3c4ccccc4n(Cc4ccc(F)cc4)cc-3c2=O)c(C)c1 |
|  |  | 40% | 0.473 |  | Cc1ccc(C)c(Cn2nc3c4ccccc4n(Cc4ccccc4)cc-3c2=O)c1 |
|  |  |  | > 10 | 54 | O=c1c2cn(Cc3ccccc3)c3ccccc3c-2nn1Cc1ccncc1 |
|  |  | 61% |  |  | O=C1C(=O)N(Cc2ccc(-n3cccn3)cc2)c2ccccc21 |
| Not Active | inactive | inactive |  |  | Cc1ccc(Cn2nc3c4ccccc4n(C)cc-3c2=O)c(C)c1 |
|  |  | 82% | 1.55 |  | Cc1ccc(Cn2nc3c4ccccc4n(Cc4ccncc4)cc-3c2=O)c(C)c1 |
|  |  |  | > 10 | 50 | O=c1c2cn(Cc3ccc(-n4cccn4)cc3)c3ccccc3c-2nn1Cc1ccccc1 |
| Not Active | inactive |  |  |  | Cc1ccc(Cn2nc3c4ccccc4n(Cc4ccccc4)cc-3c2=O)cc1 |
|  |  | 74% | 1.94 |  | Cc1ccc(Cn2nc3c4ccccc4n(Cc4ccc(-c5cnn(C)c5)cc4F)cc-3c2=O)c(C)c1 |
|  |  |  | > 10 | 48 | Cn1nc2c3ccccc3n(Cc3ccccc3)cc-2c1=O |
| Not Active | inactive | inactive |  |  | Cc1cccc(Cn2cc3c(=O)n(Cc4ccc(C)cc4C)nc-3c3ccccc32)c1 |
|  |  |  | 0.845 |  | Cc1cc(NC(=O)CS(=O)(=O)c2cn(Cc3ccc(-c4cnn(C)c4)nc3)c3cc(F)cc(F)c23)no1 |
|  |  | 83% | 3.79 |  | Cc1ccc(Cn2nc3c4ccccc4n(Cc4ccccn4)cc-3c2=O)c(C)c1 |
|  |  | 34% |  |  | O=C1C(=O)N(Cc2ccccc2)c2ccccc21 |
| Not Active | inactive |  |  |  | O=c1c2cn(Cc3ccccc3)c3ccccc3c-2nn1Cc1cccc(F)c1 |
| Not Active | inactive |  |  |  | O=c1c2c[nH]c3ccccc3c-2nn1[C@@H]1CCCC[C@H]1O |
|  |  | 75% | 3.66 |  | Cc1ccc(Cn2nc3c4ccccc4n(Cc4cccnc4)cc-3c2=O)c(C)c1 |
